Assay results as given in PubChem BioAssay (NCI).
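All cell lines were grown in 96-well plates and treated with compound for 48 hours. TGI: concentration producing complete growth inhibition.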 Where a SMILES comes first, the peptide text is derived from it. The star is where a group is joined. Boc = CC(C)(C)OC(=O)*

Key:
Assay in all cases: inhibition of tumour cell growth, NCI panel, 48 h
[1] = tested on: 786-0 renal
[2] = tested on: HCC-2998 colon
[3] = tested on: HL-60(TB) leukemia
[4] = tested on: HOP-62 NSCLC
[5] = tested on: HOP-92 NSCLC
[6] = tested on: HT29 colon
[7] = tested on: MDA-N
[8] = tested on: NCI-H23 lung
[9] = tested on: OVCAR-5 ovarian
[10] = tested on: RXF 393 renal
[11] = tested on: SF-295 CNS
[12] = tested on: SF-539 CNS
[13] = tested on: SK-MEL-28 melanoma
[14] = tested on: SK-OV-3 ovarian
[15] = tested on: SNB-19 CNS
[16] = tested on: SR leukemia
[17] = tested on: SW-620 colon
[18] = tested on: U251 CNS
[19] = tested on: UACC-62 melanoma

Structure (SMILES)	TGI [1] [µM]	TGI [2] [µM]	TGI [3] [µM]	TGI [4] [µM]	TGI [5] [µM]	TGI [6] [µM]	TGI [7] [µM]	TGI [8] [µM]	TGI [9] [µM]	TGI [10] [µM]	TGI [11] [µM]	TGI [12] [µM]	TGI [13] [µM]	TGI [14] [µM]	TGI [15] [µM]	TGI [16] [µM]	TGI [17] [µM]	TGI [18] [µM]	TGI [19] [µM]
O=C(O)c1cc(N(Cc2ccccc2O)Cc2cc(O)ccc2O)ccc1O	> 100	> 100	> 100	> 100	> 100	> 100	> 100	> 100	> 100	> 100	> 100	> 100	> 100	> 100	> 100	> 100	> 100	> 100	> 100
CCOC(=O)CCc1c(C)[nH]c2c(C)c3c([nH]c4ccc(Cl)cc43)c(C)c2c1=O	20.5	30.5	22.3	48.4	67.1	18.6	> 100	61.7	19.1	6.76	22.1	28.7	46.1		> 100	> 100	> 100	43.4	
COc1nc2c(c(=O)n1C)NC(C(O)C(O)CO)C=N2 (centres undefined)	> 10	> 10	> 10	> 10	> 10	> 10	> 10	> 10	> 10	> 10	> 10	> 10	> 10	> 10	> 10	> 10	> 10	> 10	> 10
Oc1[nH]c2ccccc2c1N=NC(=S)N1CCCC1	17.3	23.6	8.83	26.2	39.3	> 53.5	38.8	34.5	> 82.6	3.55	17.1	10.7	> 100	21.6	> 43.8	3.65	52.7	22.6	18.2
N#CC(c1ccccc1)N(CCc1ccccc1)C(=O)Oc1ccccc1 (centres undefined)	> 100	> 100	> 100	> 100	95.7	> 100	> 100	> 100	> 100	> 100	> 100	> 100	> 100	> 100	> 100	> 100	> 100	> 100	> 100
CN(C)/C=N/S(=O)(=O)c1nn2c(C=O)c(-c3ccc([N+](=O)[O-])cc3)nc2s1	9.03	> 43.4	3.85	> 81.9	53.5	4.38	17	49.7	> 79.6	> 67	> 100	71.4	18.3	> 100	> 100	> 43.3	> 34	41.6	23
CCOC(=O)C(CC(C)C)NC(=O)C(Cc1ccccc1)NC(=O)CNC(=O)OC(C)(C)C (stereo not drawn) (Boc-Gly-Phe-Leu-OEt; configuration not given here)	36.9	37.2	9.88	64	64	32.4	28.4			49	78.5	28.5	31.5	50.9	> 100	36.5	39.9	31.9	35.9
COc1ccccc1OC(=O)/C=C/c1ccccc1	> 100	> 100	> 100	> 100	> 100	> 100	> 100	> 100	> 100	> 100	> 100	> 100	> 100	> 100	> 100	> 100	> 100	> 100	> 100
NCCc1ccc2c(c1)C(=O)c1c(O)ccc(O)c1C2=O	8.59	> 100	5.34	13.4	> 100		> 100	> 60.8	> 87	> 100	> 74.9	7.97		22.2	29.6	> 100	> 100	> 30.9	39.7
COc1ccc(Nc2nc3ccccc3nc2C(=O)O)cc1	> 100	23.1	> 100	> 100	> 100	> 100	> 100	> 100	> 100	> 100	> 100	> 100	> 100	> 100	> 100	> 100	> 100	> 100	> 100
COc1ccc(C(=O)c2ccc(-n3c4ccccc4c4ccc5c(c43)C(=O)C=CC5=O)cc2)cc1	1.3	11.5		28.7	8.66	3.65	7.89	5.18	40.3	16	17.1	5.78		27.5	11	> 100		3.54	8.02
CC(=O)O/C=C\OC1CCCC1	> 100	> 100	> 100	> 100	> 100	> 100	> 100	> 100		> 100	> 100	> 100	> 100	> 100	> 100	> 100	> 100	> 100	> 100
COc1ccc2c(c1)c1c3c(ccc4ncn2c43)N(CCN(C)C)CCN=1	1.3	1.35	1.1	1.73	4.07	1.58	1.59	3.59	2.83	2.85	1.62	1.1	2.45	4.04	1.96	0.209	2.13	1.41	1.78
Cc1cc2c(=O)[nH]nc(N)c2c(N)n1	> 100	> 100	> 100	> 100	> 100	> 100	> 100	> 100	> 100	> 100	> 100		> 100	> 100	> 100	> 100	> 100	> 100	> 100
CN(NC(=O)c1cccs1)C1=NCCN1	> 100	> 100	> 100	> 100	> 100	> 100	> 100	> 100	> 100	> 100	> 100	> 100	> 100	> 100	> 100	> 100	> 100	> 100	> 100
COC(=O)/C(=C\C(=O)c1ccc(Br)cc1)NN=C(c1ccccc1)c1ccccc1	> 10	> 10	> 10	> 10	> 10	> 10	> 10	> 10		> 10	> 10		> 10	> 10		> 10	> 10		> 10
NC(N)=NS(=O)(=O)c1ccc(NNc2c3ccccc3nc3c(C(=O)Nc4ccc(S(N)(=O)=O)cc4)cccc23)cc1	> 100	> 100	77.9	> 100	73.8	56.1	> 100	> 100	> 100	> 100	> 100	> 100	> 100	> 100	> 100	> 100	> 100	83.9	> 100
O=c1cc(-c2ccccc2Cl)[nH]c2cc3c(cc12)OCO3	29.8	0.496	0.0511	11.3	67.5	1.46	0.0383	> 11	> 100	16.4	3.03	0.458	> 63.3	11.4	> 100	> 100	> 100	1.25	15.7
O=C(NC/C(Cl)=C/Cl)Nc1cccc2c1CCCC2	> 100	> 100		> 100	> 100	> 100	> 100	> 100	> 100	> 100	> 100	> 100	> 100	> 100	> 100	> 100	> 100	> 100	> 100
Cc1cc(C)c2c(c1)C(=O)C1(C2)Cc2c(ccc(C)c2C)C1=O (centres undefined)	> 100	> 100	> 100		> 100		> 100			> 100	> 100	> 100	> 100		> 100	> 100	> 100	> 100	> 100
COc1ccc2[nH]c3c(C)c4cnccc4c(C)c3c2c1	1.64	3.35	4.64	2.78	> 10	3.41	3.43	> 10	> 10	6.02	> 10	3.3	3.44	> 10	> 10	> 10	3.4	3.24	> 10
CC1CC(NN(C)C)C2(C(N)=O)C(N)=NC(=O)C12C#N (centres undefined)	> 100	> 100		> 100	> 100	> 100	> 100	> 100	> 100	> 100	> 100	> 100	> 100	> 100	> 100	> 100	> 100	> 100	> 100
O=C(CCc1cccc(O)c1)NCCc1cccc(OCc2ccccc2)c1	67.5	31.7	> 100	30.6	33.8	30.7	39	45.2	57.9	46.4	32.9	30.7	31.8	53.5	63.7	> 71.6	> 56.5	32	28.4
CCOC(=O)c1c(N2CCOCC2)[nH]c(=O)c(C(c2ccc(Cl)c([N+](=O)[O-])c2)c2c(O)c(C(=O)OCC)c(N3CCOCC3)[nH]c2=O)c1O	> 100	> 100		> 100	69.4	42.1	70.1	98.8	> 100	> 100	> 100	59.7	> 100	> 100	79.3	> 100	58.7	41.9	> 100
O=C1CSC(/C=C/c2ccccc2)N1c1ccc(-n2c(-c3ccccc3)nc3ccccc3c2=O)cc1 (centres undefined)	> 100	> 100	> 100	> 100	> 100	> 100	> 100	> 100	> 100		> 100	> 100	> 100	69	> 100	> 100		> 100	> 100
Cc1cc(=O)[nH]c2c3c(ccc12)OC(C)(C)C=C3	> 62.7	> 96.1	> 100	> 100	> 100	> 56.4	4.29	> 100	> 66.1	> 31.4	> 80.4	> 23.8	> 100	> 82.9	> 67.3	> 100	> 100	> 47.4	> 100
